In patent publication US20230226227A1, “PROSTATE SPECIFIC MEMBRANE ANTIGEN (PSMA) LIGANDS AND USES THEREOF” (ADVANCED ACCELERATOR APPLICATIONS (ITALY) SRL, priority 2019, published 2023):

Tests used:
[1] = In vitro stability in plasma (human); type: in vitro ADME; conditions: 37° C., after 2 hours
Procedure: Stability of PSMA-R2 ligand was assessed in vitro after incubation with plasma from four different species (mouse, rat, mini-pig and human). PSMA-R2 was incubated at 37° C. in the different matrices, at a final concentration of 10 µg/mL, for 30, 60 and 120 minutes. The samples were analyzed by LC-MS/MS method.

[2] = Plasma protein binding by ultrafiltration, human plasma; type: in vitro ADME; conditions: human plasma
Procedure: (§1) Plasma protein binding of PSMA-R2 and ^175Lu-PSMA-R2 has been determined by ultrafiltration method, after incubation of the compounds in human, mouse, rat and minipig plasma at two different concentrations: 1 and 5 µg/mL.

[3] = Plasma protein binding by ultrafiltration, mouse plasma; type: in vitro ADME
Procedure: as §1

[4] = Plasma protein binding by ultrafiltration, rat plasma; type: in vitro ADME; conditions: read-out: fu (%) fraction unbound
Procedure: as §1

[5] = Plasma protein binding by ultrafiltration, minipig plasma; type: in vitro ADME; conditions: read-out: fu (%) fraction unbound
Procedure: as §1

[6] = In vivo distribution in healthy CD-1 mice; parameters: species or system CD-1 healthy mice
Procedure: In vivo distribution studies were performed in CD-1 healthy mice using Ga-labelled PSMA-R2, which was administered intravenously at a dose of 120-150 µCi (4.44 - 5.55 MBq). At specific time points after intravenous injection, animals (3 or 4/group) were sacrificed, organs collected, weighted and evaluated in a gamma counter.

[7] = system: PC-3 PSMA positive and PSMA negative tumor xenografts; assay: In vivo distribution in tumor models (PSMA positive PIP and negative Flu xenografts); parameters: species or system athymic nude male mice; conditions: for Salivary glands uptake: 0.5 h post injection; for Kidney uptake / Tumor uptake / Tumor-to-kidney ratio: 1 h post injection
Procedure: Athymic nude male mice bearing the PC-3 PSMA positive and PSMA negative tumor xenografts were injected with approximately 4.5 MBq of ^68Ga-PSMA-R2, and subsequently assessed for biodistribution and imaging studies. At 4 time points (30 min, 1 h, 2 h and 4 h) post injection (p.i.), tumor and organ uptake was determined using a gamma-counter. To assess receptor-specificity additional groups of animals were coinjected with an excess of unlabeled PSMA-R2 (40 nmol).
The same study was performed with ^68Ga-PSMA-cpd 2, a comparative compound of the following formula: […]

[8] = system: PC3-PIP (PSMA positive) tumor; assay: In vivo efficacy in PC3-PIP PSMA positive model; parameters: species or system mice; conditions: single injection of 111 MBq; p<0.001
Procedure: An efficacy study was conducted in a prostate cancer model using Lu-labelled PSMA-R2).
Mice bearing PC3-PIP (PSMA positive) tumor were injected once with 111 MBq of ^177Lu-PSMA-R2, ^177Lu-PSMA-617, included as reference compound, or with saline (control).
Tumor volume is expressed either as an absolute value (mm^3) or relatively to the volume measured at the time of the first injection.

[9] = 1 µg/mL, read-out: fu (%) fraction unbound
[10] = 5 µg/mL, read-out: fu (%) fraction unbound
[11] = 1 and 5 µg/mL, read-out: Unbound fraction, range over labelled and unlabelled form

Compound: O=C(O)CCC(NC(=O)NC(CCCCN(Cc1ccc(Br)cc1)C(=O)CCCCCNC(=O)CN1CCN(CC(=O)O)CCN(CC(=O)O)CCN(CC(=O)O)CC1)C(=O)O)C(=O)O (stereo not shown) [PSMA-R2]
- recovery at 2 h, 10 µg/mL [1]: 85%
- fraction unbound at 1 µg/mL [2, 9]: 0.299 ± 0.046
- fraction unbound at 5 µg/mL [2, 10]: 0.23 ± 0.005
- fraction unbound [2, 11]: 0.25 to 0.45
- fraction unbound at 1 µg/mL [3, 9]: 0.862 ± 0.111
- fraction unbound at 5 µg/mL [3, 10]: 0.727 ± 0.015
- fraction unbound [3, 11]: 0.7 to 0.86
- fraction unbound at 1 µg/mL ([4]; 1 µg/mL): 0.256 ± 0.018
- fraction unbound at 5 µg/mL ([4]; 5 µg/mL): 0.226 ± 0.011
- fraction unbound at 1 µg/mL ([5]; 1 µg/mL): 0.407 ± 0.043
- fraction unbound at 5 µg/mL ([5]; 5 µg/mL): 0.353 ± 0.085

Compound: O=C(O)CCC(NC(=O)NC(CCCCN(Cc1ccc(Br)cc1)C(=O)CCCCCNC(=O)CN1CCN(CC(=O)O)CCN(CC(=O)O)CCN(CC(=O)O)CC1)C(=O)O)C(=O)O.[68Ga] (stereo not shown) [^68Ga-PSMA-R2]
- Liver uptake ([6]; 30 minutes after intravenous injection): 0.74%
- Liver uptake ([6]; 4 hours after intravenous injection): 0.21%
- Radiotracer uptake in remaining organs (intestine, pancreas, muscle, bone) ([6]; all time-points): Low
- Radiotracer uptake in blood, adrenals, lungs, thyroid ([6]; earliest time-point (30 min), decreased rapidly later): slightly high
- Excretion route (uptake in kidneys and bladder) ([6]; intravenous): excreted through the renal system
- Salivary glands uptake [7]: 0.81% (0.5 h)
- Kidney uptake [7]: 6% (1 h)
- Tumor uptake [7]: 29% (1 h)
- Tumor-to-kidney ratio [7]: 5 (1 h)

Compound: O=C(O)CC[C@H](NC(=O)N[C@@H](CCCCN(Cc1ccc(Br)cc1)C(=O)CCCCNC(=O)CN1CCN(CC(=O)O)CCN(CC(=O)O)CCN(CC(=O)O)CC1)C(=O)O)C(=O)O.[68Ga] [^68Ga-PSMA-cpd2, reference compound]
- Salivary glands uptake [7]: 0.95% (0.5 h)
- Kidney uptake [7]: 13% (1 h)
- Tumor uptake [7]: 36% (1 h)
- Tumor-to-kidney ratio [7]: 3 (1 h)

Compound: O=C([O-])CN1CCN(CC(=O)[O-])CCN(CC(=O)NCC2CCC(C(=O)N[C@@H](Cc3ccc4ccccc4c3)C(=O)NCCCC[C@H](NC(=O)N[C@@H](CCC(=O)O)C(=O)O)C(=O)O)CC2)CCN(CC(=O)[O-])CC1.[177Lu+3] (stereo partly shown) [^177Lu-PSMA-617, reference compound]
- Absolute tumor volume in comparison to control group [8]: significantly reduced
- Relative tumor volume in comparison to control group [8]: significantly reduced

Compound: O=C([O-])CN1CCN(CC(=O)[O-])CCN(CC(=O)NCCCCCC(=O)N(CCCC[C@H](NC(=O)N[C@@H](CCC(=O)O)C(=O)O)C(=O)O)Cc2ccc(Br)cc2)CCN(CC(=O)[O-])CC1.[177Lu+3] [^177Lu-PSMA-R2]
- Absolute tumor volume in comparison to control group [8]: significantly reduced
- Relative tumor volume in comparison to control group [8]: significantly reduced
